# In patent publication US8602544B2, “Ink set, ink cartridge, ink jet recording method, and ink jet recording apparatus” (Canon Kabushiki Kaisha, priority 2009, dated 2013):
# Assay: Determination of poor medium/good medium (solubility of the dye in a water-soluble organic solvent)
# Format: physicochemical
# Method: It is determined by the solubility of the dye whether a certain water-soluble organic solvent is a good medium or a poor medium with respect to a dye to be used together. In other words, the good medium and the poor medium are indexes which indicate the relationship between the water-soluble organic solvent and the dye from the viewpoint of the solubility.
# More specifically, it can be determined in the following way whether a certain water-soluble organic solvent is a good medium or a poor medium with respect to a dye being an object to be determined. The water-soluble organic solvent of an object to be determined and a sufficient amount of a dye are placed into a sample bottle having a capacity of approximately 20 cc, and the liquid is stirred overnight. […] Because the supernatant liquid after the centrifugal separation is a saturated solution of the dye, the solubility of the dye can be determined by measuring the absorbance of the liquid, and calculating the ratio of the measured absorbance to the absorbance of an aqueous solution of the dye with a known concentration.
# In order to evaluate the reliability of the ink, it was determined what type of relationship there was between a dye and a water-soluble organic solvent which were contained in an ink. A water-soluble organic solvent being an object to be determined (when the water-soluble organic compound is solid, it was a 20% aqueous solution of the solid) and a sufficient amount of the dye were placed into a sample bottle having a capacity of 20 cc, and the liquid was stirred overnight. […] Then, the solubility of the dye with respect to the water-soluble organic solvent being the object to be determined (or 20% aqueous solution) was determined from the ratio of the measured absorbance to the previously measured absorbance of an aqueous solution having a predetermined concentration of the dye. From the obtained solubility, a water-soluble organic solvent having a solubility of 5% or less was determined to be a poor medium, and a water-soluble organic solvent having a solubility of more than 5% was determined to be a good medium.
# [1] = 1-(2-hydroxyethyl)-2-pyrrolidinone
# [2] = Triethylene glycol monobutyl ether
Structure (SMILES),"Determination results for poor medium/good medium (solubility of the dye) (1,2-hexandiol)","Determination results for poor medium/good medium (solubility of the dye) (1,5-pentanediol)",Determination results for poor medium/good medium (solubility of the dye) [1],"Determination results for poor medium/good medium (solubility of the dye) (2-methyl-1,3-propanediol)",Determination results for poor medium/good medium (solubility of the dye) (Diethylene glycol),Determination results for poor medium/good medium (solubility of the dye) (Ethylene glycol),Determination results for poor medium/good medium (solubility of the dye) (Glycerin),Determination results for poor medium/good medium (solubility of the dye) (Propylene glycol),Determination results for poor medium/good medium (solubility of the dye) (Triethylene glycol),Determination results for poor medium/good medium (solubility of the dye) [2]
Cn1c(=O)c(C(=O)c2cccc(S(=O)(=O)O)c2)c2c3c(c(Nc4cc(Nc5nc(NCCNc6nc(Nc7cc(Nc8ccc9c%10c8C(=O)c8ccccc8-c%10c(C(=O)c8cccc(S(=O)(=O)O)c8)c(=O)n9C)c(S(=O)(=O)O)cc7S(=O)(=O)O)nc(Oc7ccc(S(=O)(=O)O)cc7)n6)nc(Oc6ccc(S(=O)(=O)O)cc6)n5)c(S(=O)(=O)O)cc4S(=O)(=O)O)ccc31)C(=O)c1ccccc1-2 [Exemplified compound M1],poor (a water-soluble organic solvent having a solubility of 5% or less was determined to be a poor medium),poor (a water-soluble organic solvent having a solubility of 5% or less was determined to be a poor medium),good (a water-soluble organic solvent having a solubility of more than 5% was determined to be a good medium),poor (a water-soluble organic solvent having a solubility of 5% or less was determined to be a poor medium),good (a water-soluble organic solvent having a solubility of more than 5% was determined to be a good medium),good (a water-soluble organic solvent having a solubility of more than 5% was determined to be a good medium),good (a water-soluble organic solvent having a solubility of more than 5% was determined to be a good medium),good (a water-soluble organic solvent having a solubility of more than 5% was determined to be a good medium),good (a water-soluble organic solvent having a solubility of more than 5% was determined to be a good medium),good (a water-soluble organic solvent having a solubility of more than 5% was determined to be a good medium)
CCc1cc(C)c(S(=O)(=O)O)c(CC)c1Nc1nc(N(c2nc3ccc(S(=O)(=O)O)cc3s2)c2c(CC)cc(C)c(S(=O)(=O)O)c2CC)cc(C)c1N=Nc1c(C#N)c(C(C)(C)C)nn1-c1nc2ccc(S(=O)(=O)O)cc2s1 [Exemplified compound M2],good (a water-soluble organic solvent having a solubility of more than 5% was determined to be a good medium),good (a water-soluble organic solvent having a solubility of more than 5% was determined to be a good medium),good (a water-soluble organic solvent having a solubility of more than 5% was determined to be a good medium),good (a water-soluble organic solvent having a solubility of more than 5% was determined to be a good medium),good (a water-soluble organic solvent having a solubility of more than 5% was determined to be a good medium),good (a water-soluble organic solvent having a solubility of more than 5% was determined to be a good medium),good (a water-soluble organic solvent having a solubility of more than 5% was determined to be a good medium),good (a water-soluble organic solvent having a solubility of more than 5% was determined to be a good medium),good (a water-soluble organic solvent having a solubility of more than 5% was determined to be a good medium),good (a water-soluble organic solvent having a solubility of more than 5% was determined to be a good medium)
